# Like-named read-outs stand apart in the source and are kept apart here.
# Key:
# Human DP1 receptor = Human DP1 receptor (Homo sapiens (Human), UniProt Q13258); assay: Human DP1 inhibitory activity in DP1-expressing cell (PGD2-induced cAMP); format: cell-based; conditions: category of cAMP IC50, human DP1 receptor expressing Jurkut cell
# Protocol: Compounds were categorized as AA (cAMP is less than 100 nM) and A (cAMP is more than 100 nM and less than 5000 nM) as shown in Table 99 and 100.
# CRTH2 = CRTH2 (Homo sapiens (Human), UniProt Q9Y5Y4); assay: CRTH2 receptor binding inhibitory activity ([3H]-PGD2 displacement, membranes of CRTH2-expressing K562 cell); conditions: [3H]-PGD2 displacement, membrane of CRTH2-expressing K562 cell, read-out: Ki
# In short: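 CRTH2-expressing K562 membranes (20 μg/well) in 50 mM Tris/HCl pH 7.4 with 10 mM MgCl2 were incubated with [3H]-PGD2 for 60 min at room temperature, then filtered.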
# [1] = CRTH2 receptor binding, categorized AAAA/AAA
# Sequence of Human DP1 receptor (Q13258 whole entry): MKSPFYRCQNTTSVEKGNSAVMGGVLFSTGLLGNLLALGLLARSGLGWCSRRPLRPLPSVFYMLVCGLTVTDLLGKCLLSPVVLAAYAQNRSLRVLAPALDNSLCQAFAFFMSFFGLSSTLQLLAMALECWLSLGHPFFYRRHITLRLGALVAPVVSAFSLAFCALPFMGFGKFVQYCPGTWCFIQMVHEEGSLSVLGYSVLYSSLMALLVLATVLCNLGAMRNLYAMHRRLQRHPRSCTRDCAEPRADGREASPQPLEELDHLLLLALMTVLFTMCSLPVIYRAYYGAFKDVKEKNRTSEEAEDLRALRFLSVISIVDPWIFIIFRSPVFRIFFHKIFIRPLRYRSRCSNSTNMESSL
# Sequence of CRTH2 (Q9Y5Y4 whole entry): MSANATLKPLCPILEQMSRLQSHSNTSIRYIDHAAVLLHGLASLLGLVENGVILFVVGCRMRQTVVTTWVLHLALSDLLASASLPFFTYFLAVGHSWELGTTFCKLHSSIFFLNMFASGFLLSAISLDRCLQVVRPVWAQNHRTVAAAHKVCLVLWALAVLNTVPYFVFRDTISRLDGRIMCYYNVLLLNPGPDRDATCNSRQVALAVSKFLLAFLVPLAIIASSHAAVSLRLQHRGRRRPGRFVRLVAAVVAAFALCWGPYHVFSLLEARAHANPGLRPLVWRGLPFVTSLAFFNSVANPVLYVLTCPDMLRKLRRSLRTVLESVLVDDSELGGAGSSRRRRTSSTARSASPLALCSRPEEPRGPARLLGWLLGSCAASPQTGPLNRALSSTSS
Structure (SMILES),IC50 (Human DP1 receptor),Ki (CRTH2; [1]),Ki (CRTH2)
CCSCCOc1ccc(S(=O)(=O)N2C[C@@H](C)[C@@H](n3nc(CC(=O)O)c4ccccc43)C2)cc1 [Compound I-308],< 100 nM,< 100 nM,
CC(C)Oc1ccc(S(=O)(=O)N2C[C@H](n3nc(CC(=O)O)c4ccc(F)cc43)C[C@@H]2COc2cccc(I)c2)cc1 [Compound I-295],< 100 nM,100 to 5000 nM,
CC(C)Oc1ccc(S(=O)(=O)N2C[C@H](n3nc(CC(=O)O)c4ccc(F)cc43)C[C@H]2COc2nc3ccccc3s2)cc1 [Compound I-300],100 to 5000 nM,< 100 nM,
CC(C)Oc1ccc(S(=O)(=O)N2C[C@H](n3nc(CC(=O)O)c4ccc(Cl)cc43)C[C@@H]2C(F)F)cc1 [Compound I-93],< 100 nM,100 to 5000 nM,
C[C@@H]1CN(S(=O)(=O)c2ccc3occc3c2)C[C@@H]1n1nc(CC(=O)O)c2ccccc21 [Compound I-215],100 to 5000 nM,< 100 nM,22 nM
C[C@@H]1CN(S(=O)(=O)c2ccc(OC(F)F)cc2)C[C@@H]1n1nc(CC(=O)O)c2ccc(F)cc21 [Compound I-107],< 100 nM,< 100 nM,
CCOc1ccc(S(=O)(=O)N2C[C@@H](C)[C@@H](n3nc(CC(=O)NO)c4ccccc43)C2)cc1 [Compound I-311],100 to 5000 nM,100 to 5000 nM,
CCOc1ccc(S(=O)(=O)N2C[C@@H](C)[C@@H](n3nc(CC(=O)O)c4ccc(C5CCCCC5)cc43)C2)cn1 [Compound I-224],100 to 5000 nM,< 100 nM,
CCOc1ccc(S(=O)(=O)N2C[C@H](n3nc(CC(=O)O)c4ccccc43)[C@H](C)[C@@H]2C#N)cc1 [Compound I-333],< 100 nM,< 100 nM,
CC(C)Oc1ccc(S(=O)(=O)N2C[C@H](C)[C@@H](n3nc(CC(=O)O)c4ccccc43)C2)cc1 [Compound I-115],< 100 nM,< 100 nM,
CCOc1ccc(S(=O)(=O)N2C[C@H](n3nc(CC(=O)O)c4ccccc43)C[C@@H]2C(N)=O)cc1 [Compound I-319],100 to 5000 nM,100 to 5000 nM,
COCCOCCOc1ccc(S(=O)(=O)N2C[C@@H](C)[C@@H](n3nc(CC(=O)O)c4ccccc43)C2)cc1 [Compound I-253],100 to 5000 nM,100 to 5000 nM,
CC(C)Oc1ccc(S(=O)(=O)N2C[C@H](n3nc(CC(=O)O)c4ccc(F)cc43)[C@@](C)(O)C2)cc1 [Compound I-84],100 to 5000 nM,< 100 nM,
CC(C)Oc1ccc(S(=O)(=O)N2C[C@H](n3nc(CC(=O)O)c4ccc(F)cc43)C[C@@H]2Cn2ccnc2)cc1 [Compound I-20],100 to 5000 nM,< 100 nM,
CC(C)Oc1ccc(S(=O)(=O)N2C[C@@H](C)[C@@H](n3nc(CC(=O)O)c4cc(Cl)ccc43)C2)cc1 [Compound I-163],< 100 nM,100 to 5000 nM,
CC(C)Oc1ccc(S(=O)(=O)N2C[C@@H](n3nc(CC(=O)O)c4ccc(F)cc43)C[C@@H]2c2ccccc2F)cc1 [Compound I-301],100 to 5000 nM,100 to 5000 nM,
CCOc1ccc(S(=O)(=O)N2C[C@@H](C)[C@@H](n3nc(CC(=O)O)c4cc(C)ccc43)C2)cn1 [Compound I-265],< 100 nM,< 100 nM,
Cc1ccc(S(=O)(=O)N2C[C@H](n3c(C)c(CC(=O)O)c4ccccc43)C[C@@H]2C)cc1 [Compound I-318],100 to 5000 nM,100 to 5000 nM,
CCOc1ccc(S(=O)(=O)N2C[C@@H](C)[C@@H](n3nc(CC(=O)O)c4ccc(F)cc43)C2)nc1 [Compound I-235],100 to 5000 nM,< 100 nM,
COc1ccc2c(c1)c(CC(=O)O)nn2[C@H]1CN(S(=O)(=O)c2ccc(OC(C)C)cc2)C[C@H]1C [Compound I-267],< 100 nM,100 to 5000 nM,
C[C@H]1C[C@@H](n2nc(CC(=O)O)c3ccc(F)cc32)CCN1S(=O)(=O)c1ccc(F)cc1 [Compound I-77],100 to 5000 nM,< 100 nM,48 nM
C[C@@H]1CN(S(=O)(=O)c2ccccc2C#N)C[C@@H]1n1nc(CC(=O)O)c2ccc(F)cc21 [Compound I-124],100 to 5000 nM,< 100 nM,
CC(C)Oc1ccc(S(=O)(=O)N2C[C@@H](C)[C@@H](n3nc(CC(=O)O)c4ccccc43)C2)nc1 [Compound I-248],100 to 5000 nM,< 100 nM,
CC(C)Oc1ccc(S(=O)(=O)N2C[C@@H](C)[C@@H](n3nc(CC(=O)O)c4ccccc43)C2)cn1 [Compound I-99],< 100 nM,< 100 nM,
COc1ccc(S(=O)(=O)N2C[C@@H](C)[C@@H](n3nc(CC(=O)O)c4ccc(F)cc43)C2)cn1 [Compound I-116],100 to 5000 nM,< 100 nM,

# Reference: US9725442B2, “Heterocyclic derivative having PGD2 receptor antagonist activity” (Shionogi & Co., Ltd., priority 2011, dated 2017)
